Results published in patent US20260250318A1, “COMPOSITIONS AND METHODS FOR CROSSING THE BLOOD BRAIN BARRIER” (VOYAGER THERAPEUTICS, INC., priority 2022, published 2026).

How the values were obtained:
Conditions in all cases: synthetic library passage 3, intravenous, relative to wild-type AAV9
[1] = test system: brain; assay: NGS fold enrichment of synthetic library (passage 3) in BALB/c mice, first cross-species screen; assay type: in vivo
Procedure, shortened: (§1)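 Passage-3 synthetic capsid library given intravenously […] to NHPs (2-4 years) and BALB/c or C57Bl/6 mice (n=3, 6-8 weeks). After e.g. 28 days, tissue RNA was RT-PCR amplified and NGS-sequenced; values are fold enrichment of each variant relative to wild-type AAV9.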

[2] = test system: brain, spinal cord, and DRG of the NHPs; assay: NGS fold enrichment of synthetic library (passage 3) in NHPs, first cross-species screen; assay type: in vivo, cynomolgus macaques (Macaca fascicularis)
Procedure, shortened: as §1

[3] = test system: brain; assay: NGS fold enrichment of synthetic library (passage 3) in C57Bl/6 mice, first cross-species screen; assay type: in vivo
Procedure, shortened: as §1

[4] = RNA from brain of BALB/c mice, NGS
[5] = RNA from spinal cord of NHPs, NGS
[6] = RNA from brain of C57Bl/6 mice, NGS

Row | Sequence | Fold enrichment over AAV9 in the brain of Mice (BALB/c) [1, 4] [fold] | Fold enrichment over AAV9 in the brain of NHPs ([2]; RNA from brain of NHPs, NGS) [fold] | Fold enrichment over AAV9 in the spinal cord of NHPs [2, 5] [fold] | Fold enrichment over AAV9 in the brain of Mice (C57Bl/6) [3, 6] [fold] | Fold enrichment over AAV9 in the brain of Mice (BALB/c) ([1]; RNA NGS, brain of BALB/c mice) [fold] | Fold enrichment over AAV9 in the brain of NHPs ([2]; RNA NGS, brain of NHPs) [fold] | Fold enrichment over AAV9 in the spinal cord of NHPs ([2]; RNA NGS, spinal cord of NHPs) [fold] | Fold enrichment over AAV9 in the brain of Mice (C57Bl/6) ([3]; RNA NGS, brain of C57Bl/6 mice) [fold]
1 | GSGSPQASRQNQQT | 0.542 | 1.189 | 6.782 | 0.923 | – | – | – | –
2 | GSGSPRDSIQNQQT | – | – | – | – | 0.446 | 1.981 | 4.914 | 0.171
3 | GSGSPRQLSQNQQT | – | – | – | – | 0.273 | 1.621 | 0.873 | 0.520
4 | GSGSQHSKAQNQQT | 0.916 | 1.168 | 0.312 | 0.638 | – | – | – | –
5 | GSGSQLMSLQNQQT | – | – | – | – | 0.172 | 2.065 | 3.559 | 0.563
6 | GSGSSSMSFQNQQT | 0.095 | 1.279 | 0.540 | 0.466 | – | – | – | –
7 | GSGSSSRPYQNQQT | – | – | – | – | 0.496 | 1.934 | 3.823 | 0.962
8 | GSGSTHSKAQNQQT | 0.801 | 1.410 | 0.515 | 0.921 | – | – | – | –
9 | GSGSVGFIGQNQQT | 0.445 | 1.227 | 8.261 | 0.689 | – | – | – | –
10 | GSGSVSQLGQNQQT | – | – | – | – | 0.375 | 3.184 | 2.307 | 0.596
11 | GSGTHLVSLQNQQT | 1.167 | 1.392 | 0.000 | 0.715 | – | – | – | –
12 | GSGTHNSAIQNQQT | – | – | – | – | 0.574 | 1.469 | 0.570 | 0.762
13 | GSGTHYDNRQNQQT | – | – | – | – | 0.486 | 1.054 | 0.072 | 0.612
14 | GSGTLYPQSQNQQT | – | – | – | – | 0.160 | 2.761 | 5.558 | 0.324
15 | GSGTQIPSQQNQQT | – | – | – | – | 0.151 | 3.112 | 1.224 | 0.470
16 | GSGTSGKTGKNQQT | 0.676 | 1.333 | 4.033 | 0.358 | – | – | – | –
17 | GSGTVHAATQNQQT | – | – | – | – | 0.476 | 1.721 | 1.676 | 0.563
18 | GSGVHGVSSQNQQT | – | – | – | – | 0.951 | 1.781 | 4.519 | 1.504
19 | GSGVMTHVLQNQQT | – | – | – | – | 0.533 | 2.692 | 0.347 | 0.370
20 | GSGVQHSLPQNQQT | – | – | – | – | 0.387 | 1.639 | 0.764 | 0.440

Row | Sequence | Fold enrichment over AAV9 in the brain of Mice (BALB/c) [1, 4] [fold] | Fold enrichment over AAV9 in the brain of NHPs ([2]; RNA from brain of NHPs, NGS) [fold] | Fold enrichment over AAV9 in the spinal cord of NHPs [2, 5] [fold] | Fold enrichment over AAV9 in the brain of Mice (C57Bl/6) [3, 6] [fold] | Fold enrichment over AAV9 in the brain of Mice (BALB/c) ([1]; RNA NGS, brain of BALB/c mice) [fold] | Fold enrichment over AAV9 in the brain of NHPs ([2]; RNA NGS, brain of NHPs) [fold] | Fold enrichment over AAV9 in the spinal cord of NHPs ([2]; RNA NGS, spinal cord of NHPs) [fold] | Fold enrichment over AAV9 in the brain of Mice (C57Bl/6) ([3]; RNA NGS, brain of C57Bl/6 mice) [fold]
21 | GSGVSARMVQNQQT | 0.697 | 1.299 | 0.624 | 0.870 | – | – | – | –
22 | GSGVSTQLLQNQQT | 0.509 | 1.367 | 2.467 | 0.928 | – | – | – | –
23 | GSGVSTYNIQNQQT | – | – | – | – | 0.520 | 3.609 | 2.912 | 0.769
24 | GSGYASHVQQNQQT | – | – | – | – | 0.758 | 2.146 | 3.038 | 1.157
25 | GSGYKAARPQNQQT | – | – | – | – | 0.337 | 1.803 | 0.000 | 1.418
26 | GSGYKDTYGQNQQT | – | – | – | – | 0.448 | 1.091 | 0.854 | 0.717
27 | GSGYLRESPQNQQT | – | – | – | – | 0.677 | 2.311 | 0.878 | 0.331
28 | GSGYNQPHLQNQQT | – | – | – | – | 0.395 | 1.435 | 4.512 | 0.711
29 | GSGYSMSQAQNQQT | – | – | – | – | 0.329 | 2.250 | 4.479 | 0.519
30 | GSGYTSLFLQNQQT | – | – | – | – | 1.044 | 2.710 | 0.010 | 0.490
31 | GSGYVITGSQNQQT | 0.248 | 1.125 | 6.271 | 0.971 | – | – | – | –
32 | GSHGHYASGQKQQT | – | – | – | – | 0.685 | 2.016 | 0.000 | 0.895
33 | GSHSQSGHGQNQQT | – | – | – | – | 0.318 | 1.413 | 1.240 | 0.696
34 | GSHTLVVSGQNQQT | – | – | – | – | 0.748 | 1.069 | 1.535 | 0.671
35 | GSIAHVGTGQNQQT | – | – | – | – | 1.045 | 1.696 | 1.264 | 0.837
36 | GSIAMTSHGQNQQT | 0.438 | 1.178 | 1.435 | 0.551 | – | – | – | –
37 | GSIGYAGQGQNQQT | – | – | – | – | 0.712 | 2.157 | 4.951 | 1.604
38 | GSIQYQSSGQNQQT | 1.191 | 1.147 | 2.601 | 1.074 | – | – | – | –
39 | GSITLIPSGQNQQT | – | – | – | – | 0.435 | 3.361 | 3.917 | 0.326
40 | GSKGVPTPGQNQQT | – | – | – | – | 0.459 | 2.625 | 1.292 | 1.452
